Results: patent US10183027B2, “Lanthanide toolbox for multi-modal, non-invasive tumor specific theranostic prodrugs” (priority 2016, dated 2019)
Where “and” joins values, the source holds several entries; their conditions need not be identical. Equal values may be shown once.

Columns and labels:
[1] = T1 weighted in vivo 7T MRI imaging and bio-distribution; design: species or system BALB/c mice
Protocol: In vivo 7T MRI measurements of the disclosed compounds in normal mice were conducted. The images were acquired at various time points after solutions of commercial GdDOTA complex (DOTAREM), GdL and PtGdL were injected. […] GdL was immediately captured by the liver, spleen and the kidneys (FIGS. 13A and 14A). […] In comparison to GdDOTA, GdL presents a similar pattern of biodistribution in the kidneys but a slower clearance rate in the liver (0.002 vs 0.016 enh/min). However, PtGdL presents a delayed capture, longer remanence and clearance compared to GdL.
All animal experiments were performed in accordance with the institutional animal protocol guidelines in place at Paris Descartes University, (saisine CEEA34.JS.142.1) and approved by the Institute's Animal Research Committee.
Wild-type female 8 weeks BALB/c mice (Elevage Janvier, Le Genest-St-Isle, France) were anaesthetized with isoflurane (1.5%, with air/O2 0.5/0.25 L·min^−1) inhalation and placed in a dedicated contention cradle. 300 μL of Gadolinium complexes in 0.9% physiological serum were intravenously injected via the tail vein while the mouse was in the scanner. For reproducibility studies, 3 mice per group were injected (n=3).
The scanning protocol was developed using Bruker Paravision 5.1 software. DCE Dynamic contrast Enhanced sequence was recorded using Intragate Flash multislices for motion free artifacts T1 weighted sequence (TR=100 ms, TE=4 ms, alpha=80°). The final images have a spatial resolution of […] in plane. The total scan time was in the order of 3 min 14 s per images. The dynamic follow-up is measured during in a scan time of 40 minutes.
To study the biodistribution of each complex, several regions of interest (ROI) were monitored: the liver, muscle, spleen, kidney, and vessels. The corresponding MRI intensity related to the amount of the Gd complex contrast agents was plotted versus time to visualize the uptake and clearance of each complex into the organs. Comparison with commercial GdDOTA (DOTAREM, Guerbet, France) was also performed at the corresponding concentration of Gd (10 mM).

[2] = system: HeLa cells; experiment: MTT dark cytotoxicity in HeLa cells (PtGdL study); assay type: cell-based, human; conditions: 24 hours
Protocol: (§1) Human cervical cancer HeLa cells were grown in Dulbecco's Modified Eagle Medium (DMEM). Human lung diploid fibroblasts-MRC-5 and prostate stromal-WPMY-1 cells were obtained from the cell resource center of Shanghai Institute of Biological Sciences, Chinese Academy of Sciences. MRC-5 and WPMY-1 are growth in MEM (GIBCO 41500034) and supplemented with 10% (v/v) fetal bovine serum, 1% penicillin and streptomycin at 37° C. and 5% CO2. […] After that, formazan was fully dissolved in DMSO through oscillation. Finally, the absorbance of solution was measured with Biotek Power wave xsMicroplate Reader at the wavelength of 570 nm and 690 nm.

[3] = system: WPMY-1 cells; experiment: MTT dark cytotoxicity in WPMY-1 cells (PtGdL study); assay type: cell-based, human; conditions: 24 hours
Protocol: as §1

[4] = system: HeLa cells; experiment: Two-photon induced activation, in vitro imaging and photo-cytotoxicity of PtGdL; assay type: cell-based, human
Protocol: The cells were incubated with PtGdL (1, 2, 5, 10 μM) for 12 hours. The complexes (cell impermeable and dissolved in the medium) were washed out with PBS buffer. The cells with complexes were placed in the tissue culture chamber (5% CO2, 37° C.) inside the two-photon confocal microscope. In vitro images were captured by using the Leica SP8 (upright configuration) confocal microscope which equipped with femto-second laser (wavelength: 700 to 1000 nm) and 40×/60× oil immersion objective. […]

[5] = Photo-induced dissociation of the cisplatin unit in tris buffer monitored by emission; assay type: physicochemical; conditions: tris buffer pH 7.4, UV 365 nm, 5 mW
Protocol: One of the key issues is the photodissociation level of the Pt moiety from the compounds described herein. The triplet states of the chromophores before and after photo-release the drug or upon binding with αvβ3 isoform were measured. Based on the synthetic protocols described herein, La (lanthanum) and Gd (gadolinium) analogs can be synthesized to measure the triplet states of the chromophores as well. The measurements of the triplet states of these chromophores phosphorescence and their phosphorescence lifetime was undertaken at low temperature (77K). The photodissociation kinetics of PtEuL were investigated by monitoring the emission spectrum with different irradiation times of UVA/NIR (light dosage=4 J cm^−2). The plot of responsive and initial emission intensity at 615 nm (^5D0→^7F2) vs time will be fitted in the exponential growth and decay equation to obtain the pseudo-first order rate constant.
The linear light induced dissociation of PtGdL in tris buffer (20 mM Tris base, 50 mM NaCl, pH 7.4) was monitored by determination of the emission intensity of solution of PtGdL in tris buffer with different light dosage of 365 nm UV light. In general, 3 mL of the solution of PtGdL (3 μM in tris buffer) in a 3.5 mL quartz cuvette was irradiated with a 365 nm UV lamp (5 mW) with stirring. The emission spectra of the solution were recorded at different time points (0, 1, 3, 5, 7, 10, 15, 20, 30, 45, 60, 75 and 90 min).
(Ln=Eu or Gd). The solution-state electronic adsorption and emission spectra of all the complexes and the ligand were recorded at 298 K (FIGS. 28A-28D). The EuL complex is the product of PtEuL after photo-dissociation and was used to monitor the photo-dissociation of [Pt—(NH3)2Cl]^+ from PtEuL. […] The photo-dissociation of PtEuL (3 μM in Tris-buffer, pH=7.4, 50 mM NaCl) was monitored by the variation of the Eu emission (λem=615 nm, ^5D0→^7F2) with the irradiation time. […] The pseudo-first order rate constant k was determined to be 0.53 min^−1 under these experimental conditions (FIG. 28D).

[6] = Dynamic light scattering of PtGdL solution; assay type: physicochemical; conditions: aqueous solution, 25.0° C.
Protocol: Dynamic Light Scattering (DLS) to investigate the presence of aggregates in a PtGdL solution was performed in Mavernm Zetasizer Nano-S equipment, at 25.0° C.

[7] = system: Plasmid DNA; experiment: Agarose gel electrophoresis of plasmid DNA after UVA irradiation (PtEuL); assay type: biochemical; conditions: 20 μM, UVA light dose 50 J m^−2
Source text: The DNA gel images were obtained using GelRed Nucleic Acid Stain (BIOTIUM).
Direct binding of PtEuL with DNA in dark were studied by circular dichroism (CD). […] The interaction of photo-activated PtEuL with DNA was examined by agarose gel electrophoresis (FIG. 29B). After UVA irradiation with PtEuL, conversion of the supercoiled conformer of the plasmid DNA to its open-circular conformer, which indicates DNA nicking (single strand break) and linear conformer, which indicates double strand break, is clearly seen.

For `O=C([O-])CN1CCN(CC(=O)[O-])CCN(CC(=O)[O-])CCN(CC(=O)[O-])CC1.[Gd+3]` [GdDOTA, reference compound], the “clearance rate in the liver” value ([1]; mice, i.v. tail vein) was 0.016 enh/min.
With `O.O=C([O-])CN1CCN(CC(=O)[O-])CCN(Cc2cc(C#Cc3ccc(NC(=O)c4ccncc4)cc3)ccn2)CCN(CC(=O)[O-])CC1.[Gd+3]` [GdL] the IC50 [2] was > 200 µM, the IC50 [3] was > 200 µM and the “cell death, control under the same experimental conditions” value ([4]; with 730 nm laser irradiation) was “no significant cell death”. The “decrease of signal enhancement” value ([1]; 4 hours after injection) was 90% and the “clearance rate in the liver” value ([1]; mice, i.v. tail vein) was 0.002 enh/min.
In the case of `O.O=[N+]([O-])[O-].[Gd+3].[NH3+][Pt-2]([NH3+])([Cl])[n+]1ccc(C(=O)Nc2ccc(C#Cc3ccnc(CN4CCN(CC(=O)[O-])CCN(CC(=O)[O-])CCN(CC(=O)[O-])CC4)c3)cc2)cc1` [PtGdL], the “pseudo-first order rate constant k for the dissociation of the cisplatin unit” value [5] is reported as 0.051 min⁻¹, the IC50 [2] is reported as ~23.6 µM and ~25 µM and the IC50 [3] is reported as 43.9 ± 1.1 µM. For the same compound, the “PDI (DLS)” value [6] was 0.156, the “size of aggregates in solution (DLS)” value ([6]; single peak) was 672±24 nm and the “dosage concentration at which dramatic cell death can be observed” value ([4]; 730 nm laser excitation for 30 min) was “less than 5 μM”. The “emission and cell death absent exposure to laser irradiation” value ([4]; no laser irradiation) was “no significant emission and/or cell death”, the “change of signal enhancement” value ([1]; after 24 hours) was “did not change greatly” and the “remanence time in renal cortex” value ([1]; mice, i.v. tail vein) was 4 to 18 h. For the same compound, the “delay in capture, depending on the tissue of interest” value ([1]; mice, liver, spleen, kidneys) was 6 to 9 min.
With `N.N.[Cl][Pt][Cl]` [cisplatin, reference compound] the DNA photocleavage activity [7] was “less significantly”.
